Laboratory results from PubChem BioAssay (NCI).
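These data come from cells grown in 96-well plates and exposed to compound for 48 hours at five concentrations. At the TGI there is no net growth.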

Legend:
Assay in all cases: NCI anticancer screen, dose series, 48 h
[1] = tested on: MOLT-4 leukemia
[2] = tested on: MDA-N
[3] = tested on: CCRF-CEM leukemia
[4] = tested on: PC-3 prostate
[5] = tested on: K-562 leukemia
[6] = tested on: SW-620 colon
[7] = tested on: UACC-62 melanoma
[8] = tested on: SNB-19 CNS
[9] = tested on: 786-0 renal
[10] = tested on: DU-145 prostate
[11] = tested on: A549 NSCLC
[12] = tested on: MDA-MB-231 breast
[13] = tested on: U251 CNS
[14] = tested on: NCI-H226 lung
[15] = tested on: SK-OV-3 ovarian
[16] = tested on: M14 melanoma
[17] = tested on: HL-60(TB) leukemia
[18] = tested on: COLO 205 colon
[19] = tested on: HCT-116 colon
[20] = tested on: HOP-62 NSCLC
[21] = tested on: EKVX NSCLC
[22] = tested on: SNB-75 CNS
[23] = tested on: SF-295 CNS
[24] = tested on: OVCAR-5 ovarian
[25] = tested on: UO-31 renal
[26] = tested on: NCI-H460 lung
[27] = tested on: T-47D breast
[28] = tested on: HS 578T breast
[29] = tested on: ACHN renal
[30] = tested on: OVCAR-3 ovarian
[31] = tested on: SK-MEL-28 melanoma
[32] = tested on: KM12 colon
[33] = tested on: RXF 393 renal
[34] = tested on: SF-268 CNS
[35] = tested on: SN12C renal
[36] = tested on: TK-10 renal
[37] = tested on: MDA-MB-435
[38] = tested on: SF-539 CNS
[39] = tested on: HT29 colon
[40] = tested on: SR leukemia
[41] = tested on: SK-MEL-5 melanoma
[42] = tested on: CAKI-1 renal
[43] = tested on: LOX IMVI melanoma
[44] = tested on: SK-MEL-2 melanoma
[45] = tested on: OVCAR-4 ovarian
[46] = tested on: OVCAR-8 ovarian
[47] = tested on: NCI-H522 lung
[48] = tested on: UACC-257 melanoma
[49] = tested on: HOP-92 NSCLC
[50] = tested on: MCF7 breast
[51] = tested on: MALME-3M melanoma
[52] = tested on: A498 renal
[53] = tested on: NCI/ADR-RES ovarian
[54] = tested on: HCC-2998 colon
[55] = tested on: HCT-15 colon
[56] = tested on: IGROV1 ovarian
[57] = tested on: BT-549 breast
[58] = tested on: NCI-H23 lung
[59] = tested on: RPMI-8226 leukemia

Measured: TGI

O=C1CS(=O)(=O)C(c2cccc(Oc3ccccc3)c2)N1c1cccc(Cl)c1Cl (stereo not drawn)
66.9 µM: [33]
37.4 µM: [13]
57.3 µM: [30]
67.8 µM: [18]
55.2 µM: [34]
83.7 µM: [21]
43.6 µM: [29]
59.5 µM: [51]
21.2 µM: [50]
90 µM: [28]
40.1 µM: [44]
89.9 µM: [4]
42.6 µM: [41]
46.6 µM: [38]
58.9 µM: [1]
92.3 µM: [22]
60.1 µM: [46]
47.7 µM: [43]
40.9 µM: [19]
82.9 µM: [17]
51.2 µM: [48]
71.2 µM: [39]
44.6 µM: [35]
41.6 µM: [49]
49.7 µM: [2]
32.7 µM: [9]
30.7 µM: [7]
48.8 µM: [37]
70.6 µM: [12]
52 µM: [40]
78.9 µM: [45]
67.3 µM: [36]
46 µM: [5]
39.4 µM: [47]
not listed: [52] | [53] | [54] | [55] | [56] | [57] | [58] | [59]
> 100 µM: all other assays above

CC1N(O)C(c2ccccc2)C(c2ccccc2)=[N+]1[O-] (stereo not drawn)
not listed: [10] | [27] | [34] | [37] | [47] | [59]
> 100 µM: all other assays above

CC(C(O)c1ccccc1)N(C)/N=N/c1nc2c([nH]1)c(=O)n(C)c(=O)n2C (stereo not drawn)
not listed: [38] | [40] | [43] | [47] | [49] | [52]
> 100 µM: all other assays above

Cc1nn(-c2ccccc2)c2nc3c(c(C)nn3-c3ccccc3)c(-c3ccccc3Br)c12
not listed: [17] | [28] | [44]
> 100 µM: all other assays above
